Data: publication PMC5585294, “A potent series targeting the malarial cGMP-dependent protein kinase clears infection and blocks transmission” (Nature Communications, 2017)

Tests used:
[1] = Plasma levels in satellite groups of mice, P. berghei experiment; type: in vivo, mouse; conditions: BALB/c, mouse, in vivo, po, 25 mg/kg
Text: Supplementary Figure 4. Plasma concentrations over time in rodent malaria models. […] Error bars show the standard deviation. (1 picture or pasted object on this page, not shown here)

P. chabaudi (AS) = assay: Synchronous P. chabaudi AS model in BALB/c mice; type: in vivo, Plasmodium chabaudi; conditions: 4 days
Experimental: Similar experiments were performed using P. chabaudi AS (from David Walliker, University of Edinburgh) with the following modifications. To allow dosing to be carried out more conveniently during the day, reversal of the light/dark exposure of mice for 2 weeks prior to the experiment was used to switch schizogony from midnight to noon each day. Mice were dosed at different time points in an attempt to have maximal coverage at the point of schizogony. All animal work protocols carried out at LSHTM were approved and licensed by the United Kingdom Home Office as governed by law under the Animals (Scientific Procedures) Act of 1986, in strict accordance with the Code of Practice Part 1 for the housing and care of animals (21 March 2005), available at http://www.homeoffice.gov.uk/science-research/animal-research/

in vivo = conditions: NOD-scid IL-2Rγc-null, mouse, po
Experimental: The blood samples were immediately lysed by mixing with 25 μl of distilled water, frozen on dry ice and stored at −80 °C until analysis. The compounds were extracted from 10 μl of each lysate by liquid–liquid extraction in the MultiScreen Solvinert 0.45 μm Hydrophobic PTFE 96-well plate system (Millipore) and stored frozen at −80 °C until analysis by LC/MS/MS in API4000 (AB Sciex, Framingham, MA). The compound concentration vs. time data were analyzed by non-compartmental analysis using Phoenix® Version 6.3 (Pharsight Corporation, Mountain View, CA, USA). Additional statistical analysis was performed with GraphPad Prism® Version 6.02 (GraphPad Software Inc, San Diego CA, USA).

[2] = test system: P. falciparum wild-type (3D7) stage V gametocytes; assay: Gametogenesis (rounding up) assay, wild-type 3D7 stage V gametocytes; type: cell-based, Plasmodium falciparum; conditions: 30 µM xanthurenic acid; 2 µM ML1, 1 µM ML10
Experimental: Plasmodium falciparum clone 3D7A (obtained from Dr Lisa Ranford-Cartwright, University of Edinburgh) gametocytes were initiated and cultured using an adapted version of the traditional Trager and Jenson method modified by Fivelman and colleagues. Stage V gametocytes were purified on a 60% Percoll gradient. Purified parasite samples were diluted in warm complete media (RPMI-1640 (Sigma), 0.5% Albumax (Invitrogen), 0.03% L-glutamine (Sigma), 0.2% Glucose (Sigma), 1× hypoxanthine (Sigma)), to a volume that would allow a final volume of […] per sample and a haematocrit of <10%. […] Control tubes containing DMSO only were kept at 37 °C. All other samples were incubated at room temperature for 30 min immediately after addition of test compounds. Samples were then washed once in warm RPMI followed by removal of the supernatant to leave a final haematocrit of roughly 50%. Samples were smeared on glass slides and fixed in 100% methanol (VWR) then stained for 15 min in 10% Giemsa R66 (VWR) and observed by light microscopy. The number of gametocytes at stage V and rounded up per 900 erythrocytes were counted three consecutive times to produce an average count. Numbers of parasites rounded up were compared to the no drug control.

[3] = test system: panel of 80 human protein kinases; assay: Human kinase panel single point screen; type: biochemical; conditions: tested at 100 nM
Text: (§1) The results are expressed as % inhibition of kinase activity.
(§2) (1 picture or pasted object on this page, not shown here)

human MLK3 = molecular target: T1, human MLK3 (Homo sapiens, UniProt Q16584); assay: Human kinase panel single point screen, MLK3; type: biochemical; conditions: at 100 nM; highest level of inhibition in the panel
T1 construct: Protein Phosphorylation Unit, Dundee (screening site)
T1 sequence (Q16584 whole entry): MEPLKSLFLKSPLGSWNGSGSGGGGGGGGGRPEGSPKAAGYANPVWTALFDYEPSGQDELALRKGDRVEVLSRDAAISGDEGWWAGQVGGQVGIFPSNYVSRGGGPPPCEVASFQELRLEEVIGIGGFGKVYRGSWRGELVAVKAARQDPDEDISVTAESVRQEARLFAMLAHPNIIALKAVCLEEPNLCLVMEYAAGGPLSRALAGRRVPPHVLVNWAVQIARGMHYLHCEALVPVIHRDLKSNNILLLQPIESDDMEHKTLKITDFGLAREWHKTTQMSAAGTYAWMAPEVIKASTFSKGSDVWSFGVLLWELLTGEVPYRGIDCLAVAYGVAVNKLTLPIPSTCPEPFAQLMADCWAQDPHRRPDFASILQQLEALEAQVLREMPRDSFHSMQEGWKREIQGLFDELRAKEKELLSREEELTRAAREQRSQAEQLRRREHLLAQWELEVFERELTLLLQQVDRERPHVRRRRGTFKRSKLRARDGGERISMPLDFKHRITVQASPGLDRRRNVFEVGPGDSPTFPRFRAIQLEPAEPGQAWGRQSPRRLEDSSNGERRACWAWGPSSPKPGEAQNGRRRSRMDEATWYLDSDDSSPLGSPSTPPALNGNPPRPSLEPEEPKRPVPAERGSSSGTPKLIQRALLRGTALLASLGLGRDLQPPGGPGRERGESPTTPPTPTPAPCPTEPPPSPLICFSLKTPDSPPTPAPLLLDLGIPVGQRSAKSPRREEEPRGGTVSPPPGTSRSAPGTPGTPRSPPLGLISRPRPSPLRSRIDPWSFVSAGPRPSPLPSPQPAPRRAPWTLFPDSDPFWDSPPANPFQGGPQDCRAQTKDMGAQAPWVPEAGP
Text: as §1, §2

[4] = Cytotoxicity assay using HepG2 cells; conditions: human
Experimental: (§3) Compound mlm hlm mLogD PAMPA HepG2 name (%rem) (%rem) (nm/s) (IC50 µM)
(§4) Supplementary Table 2. Compound Properties. MLM, HLM, mLogD and PAMPA . mlm (%rem): % of compound remaining after 30 minutes’ incubation with mouse liver microsomes; hlm (%rem): % of compound remaining after 40 minutes’ incubation with human liver microsomes; mLogD: measured LogD at pH 7.4; PAMPA: parallel artificial membrane permeability assay; HepG2: Cytotoxicity assay using HepG2 cells; n.t.: not tested.

[5] = Cytotoxicity assay (ATP depletion), A549; type: cell-based; conditions: human, A549 lung carcinoma cells, 0.001–10 µM, n = 6
Experimental: (§5) A549 (lung carcinoma; ATCC, Ref. ATCC® CCL-185™), plated at 7.5×10^3 cells/well; HT-29 (colorectal adenocarcinoma; ATCC, Ref. ATCC® HTB-38™), plated at 7.5×10^3 cells/well; and MCF7 (breast adenocarcinoma; ATCC, Ref. ATCC® HTB-22™), plated at 9× 10^3 cells/well, were placed into clear bottom, opaque 96 well plates in cell line-specific medium and allowed to attach overnight. […] FCS, 1× GlutaMAX™ Supplement (Life Technologies, 35050061) and 50 units/ml penicillin and 50 µg/ml streptomycin for 48 h. Six independent assays were performed for each line and were carried out by CXR Biosciences Ltd. End point for cytotoxicity assessment was carried out using an ATP depletion kit (CellTiter-Glo Luminescent Cell Viability Assay for ATP quantitation (Promega, Cat # G7572)). Results expressed relative to the 0.1% DMSO control. Unpaired Student’s t-tests were performed using GraphPad Prism software (7.0).

[6] = Cytotoxicity assay (ATP depletion), HT-29; type: cell-based; conditions: human, HT-29 colorectal adenocarcinoma cells, 0.001–10 µM, n = 6
Experimental: as §5

[7] = Cytotoxicity assay (ATP depletion), MCF7; type: cell-based; conditions: human, MCF7 breast adenocarcinoma cells, 0.001–10 µM, n = 6
Experimental: as §5

[8] = Stability in human liver microsomes; conditions: human, microsomes, 40 min
Experimental: as §3, §4

[9] = Parallel artificial membrane permeability assay (PAMPA); type: in vitro ADME
Text: Compound mlm hlm mLogD PAMPA HepG2
name (%rem) (%rem) (nm/s) (IC50 µM)
Supplementary Table 2. Compound Properties. MLM, HLM, mLogD and PAMPA . mlm

[10] = test system: P. falciparum strain 3D7A; assay: In vitro parasite reduction rate (PRR) assay; conditions: 10× EC50
Experimental: The assay used the limiting dilution technique to quantify the number of parasites that remained viable after drug treatment. […] To quantify the number of viable parasites after treatment, threefold serial dilutions were used with the above-mentioned samples after removing the drug. Four independent serial dilutions were performed with each sample to correct experimental variations. The number of viable parasites was determined after 21 and 28 days by counting the number of wells with growth using [^3H]-hypoxanthine incorporation. The number of viable parasites was back-calculated by using the formula X ^n-1 where n is the number of wells able to render growth and X the dilution factor (when n = 0, number of viable parasites is estimated as zero).

[11] = test system: P. falciparum Pf3D7 0087/N9; assay: GSK P. falciparum humanized mouse model (GSKPfalcHuMouse) efficacy; conditions: 4 days
Text: The mice were infected with 2 × 10^7 P. falciparum Pf3D7^0087/N9-infected erythrocytes (Day 0) at ~ 40% chimerism in peripheral blood. […] AUCED90 is the average daily exposure of the compound in whole blood that reduces parasitemia at day 7 of the in vivo assay by 90% with respect to parasitemia in vehicle-treated mice.

Q: Which results are given for `Cc1cn2c(-c3ccnc(NCC4CC4)n3)c(-c3ccc(F)c(NS(C)(=O)=O)c3)nc2cc1CN(C)C` [ML10]?
A: half-life [1]: 0.8 h; reduction in blood stage parasitaemia (P. chabaudi (AS); single daily oral dose 50 mg/kg just prior to schizogony): 60.9%; reduction in blood stage parasitaemia (mean) (P. chabaudi (AS); twice daily oral dose 50 mg/kg (3 h apart)): 97.8%; half-life (in vivo; 50 mg/kg): 8.7 h; half-life (in vivo; 100 mg/kg): 17 h; rounding up of wild-type gametocytes [2]: blocked rounding up; inhibitory activity against panel of 80 human protein kinases [3]: only low levels of inhibitory activity; inhibition at 0.1 µM (human MLK3): 40%; IC50 [4]: > 20 µM; EC50 at 48 h [5]: > 10 µM; EC50 at 48 h [6]: > 10 µM; EC50 at 48 h [7]: > 10 µM; hlm (%rem) [8]: 61%; Papp [9]: 8.16 ×10⁻⁶ cm/s; lag before killing (effects reversible following wash-out) [10]: about 24 h; parasitaemia at the end of the treatment ([11]; 100 mg/kg twice daily oral): not detectable; effect on parasitaemia ([11]; 50 or 100 mg/kg twice daily oral): dramatically reduced parasitaemia
